Test results as given in the supplement of paper PMC10307832.

Columns and labels:
Assay in all cases: relative viability (nuclei count vs DMSO), 5 days (fraction); higher = more cells survive
[1] = test system: BEN
How it was run: (§1)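 Lung cancer cell lines in 1536-well plates were dosed by pin tool the day after seeding, either with one drug alone or with a fixed anchor-drug dose plus five library-drug doses (not always all listed) in √10 steps. After 5 days, cells were fixed and their nuclei stained in one step (final 0.05% Triton X-100, 1% formaldehyde, 1 ug/ml Hoechst), then counted on 4× images. Relative viability is the nuclei count in treated wells divided by that in vehicle wells. Values are medians of duplicate plates.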

[2] = test system: CAL-12T
How it was run: as §1

[3] = test system: COR-L23
How it was run: as §1

[4] = test system: HCC-44
How it was run: as §1

[5] = test system: LU99A
How it was run: as §1

[6] = test system: LXF-289
How it was run: as §1

[7] = test system: NCI-H1355
How it was run: as §1

[8] = test system: NCI-H1437
How it was run: as §1

[9] = test system: NCI-H1650
How it was run: as §1

[10] = test system: NCI-H1651
How it was run: as §1

[11] = test system: NCI-H1666
How it was run: as §1

With `Cc1cn(-c2cc(NC(=O)c3ccc(C)c(Nc4nccc(-c5cccnc5)n4)c3)cc(C(F)(F)F)c2)cn1` [Nilotinib] + CC(=O)Nc1cccc(-n2c(=O)n(C3CC3)c(=O)c3c(Nc4ccc(I)cc4F)n(C)c(=O)c(C)c32)c1 [Trametinib] (partner 0.02 µM) the relative viability ([1]; first compound 0.001 µM) was 0.98, the relative viability ([1]; first compound 0.003162 µM) was 0.931 and the relative viability ([1]; first compound 0.01 µM) was 1.01. For the same molecule, the relative viability ([1]; first compound 0.03162 µM) was 0.954, the relative viability ([1]; first compound 0.1 µM) was 1.15 and the relative viability ([2]; first compound 0.001 µM) was 0.289. For the same molecule, the relative viability ([2]; first compound 0.003162 µM) was 0.34, the relative viability ([2]; first compound 0.01 µM) was 0.261 and the relative viability ([2]; first compound 0.03162 µM) was 0.283. The relative viability ([2]; first compound 0.1 µM) was 0.249, the relative viability ([3]; first compound 0.001 µM) was 0.472 and the relative viability ([3]; first compound 0.003162 µM) was 0.419. For the same molecule, the relative viability ([3]; first compound 0.01 µM) was 0.384, the relative viability ([3]; first compound 0.03162 µM) was 0.283 and the relative viability ([3]; first compound 0.1 µM) was 0.266. The relative viability ([4]; first compound 0.001 µM) was 0.951, the relative viability ([4]; first compound 0.003162 µM) was 1.03 and the relative viability ([4]; first compound 0.01 µM) was 1.21. It also gave a relative viability ([4]; first compound 0.1 µM) of 0.774, a relative viability ([5]; first compound 0.001 µM) of 0.31 and a relative viability ([5]; first compound 0.003162 µM) of 0.328. It also gave a relative viability ([5]; first compound 0.01 µM) of 0.332, a relative viability ([5]; first compound 0.03162 µM) of 0.296 and a relative viability ([5]; first compound 0.1 µM) of 0.242. For the same molecule, the relative viability ([6]; first compound 0.001 µM) was 0.686, the relative viability ([6]; first compound 0.003162 µM) was 0.699 and the relative viability ([6]; first compound 0.01 µM) was 0.701. It also gave a relative viability ([6]; first compound 0.03162 µM) of 0.577, a relative viability ([6]; first compound 0.1 µM) of 0.466 and a relative viability ([7]; first compound 0.001 µM) of 0.378. It also gave a relative viability ([7]; first compound 0.003162 µM) of 0.469, a relative viability ([7]; first compound 0.01 µM) of 0.44 and a relative viability ([7]; first compound 0.03162 µM) of 0.356. For the same molecule, the relative viability ([7]; first compound 0.1 µM) was 0.307, the relative viability ([8]; first compound 0.001 µM) was 0.445 and the relative viability ([8]; first compound 0.003162 µM) was 0.541. It also gave a relative viability ([8]; first compound 0.01 µM) of 0.631, a relative viability ([8]; first compound 0.03162 µM) of 0.382 and a relative viability ([8]; first compound 0.1 µM) of 0.429. For the same molecule, the relative viability ([9]; first compound 0.001 µM) was 0.608, the relative viability ([9]; first compound 0.003162 µM) was 0.735 and the relative viability ([9]; first compound 0.01 µM) was 0.531. For the same molecule, the relative viability ([9]; first compound 0.03162 µM) was 0.471, the relative viability ([9]; first compound 0.1 µM) was 0.327 and the relative viability ([10]; first compound 0.001 µM) was 0.828. It also gave a relative viability ([10]; first compound 0.003162 µM) of 0.916, a relative viability ([10]; first compound 0.01 µM) of 0.951 and a relative viability ([10]; first compound 0.03162 µM) of 0.761. The relative viability ([10]; first compound 0.1 µM) was 0.851, the relative viability ([11]; first compound 0.001 µM) was 0.843 and the relative viability ([11]; first compound 0.003162 µM) was 0.689.
